Experiments:
M14 = assay type: cell-based; conditions: M14, Melanoma
BT-549 = assay type: cell-based; conditions: BT-549, Breast
[1] = DPPH radical scavenging assay; conditions: 25 µM test compound, 0.1 mM DPPH, acetonitrile, 30 min
Procedure: A stable free radical DPPH (2,2-Diphenyl-1-picrylhydrazyl) assay was employed to test the antioxidant activity of all the synthesized compounds. Concisely, 25 µM of the test compounds were dissolved in acetonitrile and combined with 0.1 mM of DPPH (in acetonitrile) in a 1:2 ratio (80 µL and 160 µL). Then, the mixture was left undisturbed in the dark for 30 min at room temperature. After 30 min, the absorbance of the solutions was instantly measured at 517 nm using a Varioskan Multiplate Reader (Thermo Fisher Scientific, Mumbai, India). Ascorbic acid (in acetonitrile) was used as the positive control, and andrographolide and isoandrogapholide (in acetonitrile) were used as the standards. The following equation was used to determine the DPPH radical scavenging activity:% Radical scavenging activity = (Ac − As)/Ac × 100 where Ac = the absorbance of the blank (DPPH solution), and As = the absorbance of the test samples

HL-60(TB) = conditions: for GI50 / Total growth inhibition (TGI): Leukemia; for CC50: read-out: 50% lethal concentration (LC50), Leukemia
MOLT-4 = conditions: MOLT-4, Leukemia; for CC50: read-out: 50% lethal concentration (LC50)
SR = conditions: for GI50 / Total growth inhibition (TGI): Leukemia; for CC50: read-out: 50% lethal concentration (LC50), Leukemia
A549/ATCC = conditions: for Total growth inhibition (TGI): Non-Small Cell Lung; for GI50: Non-Small-Cell Lung; for CC50: read-out: 50% lethal concentration (LC50), Non-Small Cell Lung
HOP-62 = conditions: for Total growth inhibition (TGI) / CC50: HOP-62, Non-Small Cell Lung; for GI50: HOP-62, Non-Small-Cell Lung; for CC50: read-out: 50% lethal concentration (LC50)
NCI-H23 = conditions: for Total growth inhibition (TGI) / CC50: NCI-H23, Non-Small Cell Lung; for GI50: NCI-H23, Non-Small-Cell Lung; for CC50: read-out: 50% lethal concentration (LC50)
HCC-2998 = conditions: HCC-2998, Colon; for CC50: read-out: 50% lethal concentration (LC50)
HT29 = conditions: HT29, Colon; for CC50: read-out: 50% lethal concentration (LC50)
KM12 = conditions: KM12, Colon
SW-620 = conditions: SW-620, Colon; for CC50: read-out: 50% lethal concentration (LC50)
SF-268 = conditions: SF-268, CNS; for CC50: read-out: 50% lethal concentration (LC50)
LOX IMVI = conditions: for GI50 / Total growth inhibition (TGI): Melanoma; for CC50: read-out: 50% lethal concentration (LC50), Melanoma
MALME-3M = conditions: for GI50 / Total growth inhibition (TGI): Melanoma; for CC50: read-out: 50% lethal concentration (LC50), Melanoma
SK-MEL-2 = conditions: SK-MEL-2, Melanoma; for CC50: read-out: 50% lethal concentration (LC50)
SK-MEL-28 = conditions: SK-MEL-28, Melanoma; for CC50: read-out: 50% lethal concentration (LC50)
SK-MEL-5 = conditions: SK-MEL-5, Melanoma; for CC50: read-out: 50% lethal concentration (LC50)
IGROV1 = conditions: IGROV1, Ovarian; for CC50: read-out: 50% lethal concentration (LC50)
OVCAR-5 = conditions: OVCAR-5, Ovarian
ACHN = conditions: for GI50 / Total growth inhibition (TGI): Renal; for CC50: read-out: 50% lethal concentration (LC50), Renal
CAKI-1 = conditions: CAKI-1, Renal
DU-145 = conditions: DU-145, Prostate
MCF7 = conditions: MCF7, Breast; for CC50: read-out: 50% lethal concentration (LC50)
MDA-MB-231 = conditions: for GI50: MDA-MB-231, Breast; for Total growth inhibition (TGI) / CC50: MDA-MB-231/ATCC, Breast; for CC50: read-out: 50% lethal concentration (LC50)
T-47D = conditions: for GI50 / Total growth inhibition (TGI): Breast; for CC50: read-out: 50% lethal concentration (LC50), Breast
MDA-MB-468 = conditions: MDA-MB-468, Breast; for CC50: read-out: 50% lethal concentration (LC50)
[2] = read-out: 50% lethal concentration (LC50)

Compound: C=C1CCC2C3(C)COC(c4cn(-c5ccccc5)nc4-c4ccccc4)OC3CCC2(C)C1CC=C1C(=O)OCC1O (stereo not shown) [1a]
- GI50 (M14): 1.81 µM
- LC50 (50% lethal concentration) (M14): 7.23 µM
- Total growth inhibition (TGI) (M14): 3.62 µM
- GI50 (BT-549): 1.64 µM
- Total growth inhibition (TGI) (BT-549): 3.16 µM
- CC50 (BT-549; [2]): 6.1 µM
- % DPPH radical scavenging activity [1]: 58.66%
- GI50 (HL-60(TB)): 2.32 µM
- Total growth inhibition (TGI) (HL-60(TB)): 7.4 µM
- CC50 (HL-60(TB)): > 100 µM
- GI50 (MOLT-4): 1.97 µM
- Total growth inhibition (TGI) (MOLT-4): > 100 µM
- CC50 (MOLT-4): > 100 µM
- GI50 (SR): 3.79 µM
- Total growth inhibition (TGI) (SR): > 100 µM
- CC50 (SR): > 100 µM
- Total growth inhibition (TGI) (A549/ATCC): 7.11 µM
- GI50 (A549/ATCC): 2.49 µM
- CC50 (A549/ATCC): > 100 µM
- Total growth inhibition (TGI) (HOP-62): 3.84 µM
- GI50 (HOP-62): 1.87 µM
- CC50 (HOP-62): 7.89 µM
- Total growth inhibition (TGI) (NCI-H23): 3.08 µM
- GI50 (NCI-H23): 1.69 µM
- CC50 (NCI-H23): 5.64 µM
- GI50 (HCC-2998): 1.68 µM
- Total growth inhibition (TGI) (HCC-2998): 3.11 µM
- CC50 (HCC-2998): 5.76 µM
- GI50 (HT29): 2.37 µM
- Total growth inhibition (TGI) (HT29): 6.77 µM
- CC50 (HT29): > 100 µM
- GI50 (KM12): 2.06 µM
- Total growth inhibition (TGI) (KM12): 4.31 µM
- GI50 (SW-620): 1.73 µM
- Total growth inhibition (TGI) (SW-620): 3.68 µM
- CC50 (SW-620): 7.82 µM
- GI50 (SF-268): 3.2 µM
- Total growth inhibition (TGI) (SF-268): 20.5 µM
- CC50 (SF-268): > 100 µM
- GI50 (LOX IMVI): 1.54 µM
- Total growth inhibition (TGI) (LOX IMVI): 3 µM
- CC50 (LOX IMVI): 5.85 µM
- GI50 (MALME-3M): 1.73 µM
- Total growth inhibition (TGI) (MALME-3M): 3.18 µM
- CC50 (MALME-3M): 5.88 µM
- GI50 (SK-MEL-2): 1.74 µM
- Total growth inhibition (TGI) (SK-MEL-2): 3.54 µM
- CC50 (SK-MEL-2): 7.2 µM
- GI50 (SK-MEL-28): 1.77 µM
- Total growth inhibition (TGI) (SK-MEL-28): 3.38 µM
- CC50 (SK-MEL-28): 6.45 µM
- GI50 (SK-MEL-5): 1.4 µM
- Total growth inhibition (TGI) (SK-MEL-5): 2.7 µM
- CC50 (SK-MEL-5): 5.2 µM
- GI50 (IGROV1): 1.77 µM
- Total growth inhibition (TGI) (IGROV1): 3.44 µM
- CC50 (IGROV1): 6.66 µM
- GI50 (OVCAR-5): 1.86 µM
- CC50 (OVCAR-5; [2]): 8.71 µM
- GI50 (ACHN): 1.64 µM
- Total growth inhibition (TGI) (ACHN): 3.05 µM
- CC50 (ACHN): 5.67 µM
- GI50 (CAKI-1): 1.86 µM
- Total growth inhibition (TGI) (CAKI-1): 4.81 µM
- GI50 (DU-145): 2.05 µM
- Total growth inhibition (TGI) (DU-145): 4.16 µM
- GI50 (MCF7): 2 µM
- Total growth inhibition (TGI) (MCF7): 9.09 µM
- CC50 (MCF7): > 100 µM
- GI50 (MDA-MB-231): 1.72 µM
- Total growth inhibition (TGI) (MDA-MB-231): 3.25 µM
- CC50 (MDA-MB-231): 6.15 µM
- GI50 (T-47D): 1.42 µM
- Total growth inhibition (TGI) (T-47D): 3.47 µM
- CC50 (T-47D): 8.47 µM
- GI50 (MDA-MB-468): 1.69 µM
- Total growth inhibition (TGI) (MDA-MB-468): 3.34 µM
- CC50 (MDA-MB-468): 6.58 µM

Compound: C=C1CCC2C3(C)COC(c4cn(-c5ccccc5)nc4-c4cccc([N+](=O)[O-])c4)OC3CCC2(C)C1CC=C1C(=O)OCC1O (stereo not shown) [1b]
- GI50 (M14): 2.08 µM
- LC50 (50% lethal concentration) (M14): 9.85 µM
- Total growth inhibition (TGI) (M14): 4.52 µM
- GI50 (BT-549): 1.94 µM
- Total growth inhibition (TGI) (BT-549): 3.8 µM
- % DPPH radical scavenging activity [1]: 60.68%
- GI50 (HL-60(TB)): 1.73 µM
- Total growth inhibition (TGI) (HL-60(TB)): > 100 µM
- CC50 (HL-60(TB)): > 100 µM
- GI50 (MOLT-4): 2.87 µM
- Total growth inhibition (TGI) (MOLT-4): > 100 µM
- CC50 (MOLT-4): > 100 µM
- GI50 (SR): 3.46 µM
- Total growth inhibition (TGI) (SR): > 100 µM
- CC50 (SR): > 100 µM
- Total growth inhibition (TGI) (A549/ATCC): > 100 µM
- GI50 (A549/ATCC): 3.62 µM
- CC50 (A549/ATCC): > 100 µM
- Total growth inhibition (TGI) (HOP-62): 12.4 µM
- GI50 (HOP-62): 3.15 µM
- CC50 (HOP-62): > 100 µM
- Total growth inhibition (TGI) (NCI-H23): 3.55 µM
- GI50 (NCI-H23): 1.83 µM
- CC50 (NCI-H23): 6.87 µM
- GI50 (HCC-2998): 1.92 µM
- Total growth inhibition (TGI) (HCC-2998): 3.53 µM
- CC50 (HCC-2998): 6.48 µM
- GI50 (HT29): 1.82 µM
- Total growth inhibition (TGI) (HT29): 4.26 µM
- CC50 (HT29): 9.95 µM
- GI50 (KM12): 1.99 µM
- Total growth inhibition (TGI) (KM12): 4.38 µM
- GI50 (SW-620): 2.21 µM
- Total growth inhibition (TGI) (SW-620): 5.13 µM
- CC50 (SW-620): > 100 µM
- GI50 (SF-268): 7.65 µM
- Total growth inhibition (TGI) (SF-268): > 100 µM
- CC50 (SF-268): > 100 µM
- GI50 (LOX IMVI): 1.72 µM
- Total growth inhibition (TGI) (LOX IMVI): 3.34 µM
- CC50 (LOX IMVI): 6.48 µM
- GI50 (MALME-3M): 1.78 µM
- Total growth inhibition (TGI) (MALME-3M): 3.55 µM
- CC50 (MALME-3M): 7.05 µM
- GI50 (SK-MEL-2): 1.78 µM
- Total growth inhibition (TGI) (SK-MEL-2): 3.51 µM
- CC50 (SK-MEL-2): 6.94 µM
- GI50 (SK-MEL-28): 2.04 µM
- Total growth inhibition (TGI) (SK-MEL-28): 4.06 µM
- CC50 (SK-MEL-28): 8.11 µM
- GI50 (SK-MEL-5): 1.63 µM
- Total growth inhibition (TGI) (SK-MEL-5): 3 µM
- CC50 (SK-MEL-5): 5.53 µM
- GI50 (IGROV1): 2.08 µM
- Total growth inhibition (TGI) (IGROV1): 4.27 µM
- CC50 (IGROV1): 8.76 µM
- GI50 (OVCAR-5): 2.06 µM
- Total growth inhibition (TGI) (OVCAR-5): 5.05 µM
- GI50 (ACHN): 1.89 µM
- Total growth inhibition (TGI) (ACHN): 3.62 µM
- CC50 (ACHN): 6.94 µM
- GI50 (CAKI-1): 2.81 µM
- Total growth inhibition (TGI) (CAKI-1): > 100 µM
- CC50 (CAKI-1; [2]): > 100 µM
- GI50 (DU-145): 4.11 µM
- Total growth inhibition (TGI) (DU-145): 24.3 µM
- CC50 (DU-145; [2]): > 100 µM
- GI50 (MCF7): 2.64 µM
- Total growth inhibition (TGI) (MCF7): > 100 µM
- CC50 (MCF7): > 100 µM
- GI50 (MDA-MB-231): 1.84 µM
- Total growth inhibition (TGI) (MDA-MB-231): 3.44 µM
- CC50 (MDA-MB-231): 6.44 µM
- GI50 (T-47D): 1.76 µM
- Total growth inhibition (TGI) (T-47D): 5.02 µM
- CC50 (T-47D): > 100 µM
- GI50 (MDA-MB-468): 1.76 µM
- Total growth inhibition (TGI) (MDA-MB-468): 3.52 µM
- CC50 (MDA-MB-468): 7 µM

From article PMC12298351, “Novel 3,19-(N-Phenyl-3-(4-fluorophenyl)-pyrazole) Acetal of Andrographolide Promotes Cell Cycle Arrest and Apoptosis in MDA-MB-231 Breast Cancer Cells” (Pharmaceuticals, 2025)
